Results: patent US10076504B2, “Glucagon antagonists” (Ligand Pharmaceuticals, Inc., priority 2014, dated 2018)
Where a name gives a salt, the structure may show the parent alone.

Experiments:
[1] = target: T1, human glucagon receptor (Homo sapiens, UniProt P47871); assay: Human glucagon receptor binding assay; details: displacement of [125I]glucagon from human glucagon receptor; read-out: Hu IC50
T1 construct: host or cells: Either human liver membranes or membranes of an unnamed recombinant cell line
Experimental: Compounds provided herein are dissolved in a suitable solvent (e.g., dimethylsulfoxide) at a concentration of 10 mM and then diluted in buffer (e.g., 50 mM Hepes, pH 7.4, 5 mM MgCl2, 1 mM CaCl2, and 0.2% BSA) to concentrations ranging from 1 nM to 100 μM. Compounds (20 μL/well) and [^125I]glucagon at the final concentration of 0.125 nM (20 μl/well) (Perkin Elmer) are added to and mixed in wells of a 96-well plate (Costar, Corning) containing 120 μL of buffer. Next, an appropriate aliquot of a membrane preparation containing the human glucagon receptor (isolated from human liver samples or obtained from a recombinant cell line) is added to the wells. The binding mixtures are incubated for 2 hrs at room temperature. In the meantime, a MultiScreen 96-well filter plate (Millipore) is treated with 200 μL of the buffer, which is vacuumed through the filter just before the binding mixtures are transferred to the plate. At the end of incubation, binding mixtures are transferred to the wells of the MultiScreen 96-well filter plate and filtered through by applying vacuum. The plate is washed once with 200 μL per well of the buffer, and the filters are dried and counted using a gamma counter.
The column marked “stereo” indicates whether the tested compound tested was racemic or the R-isomer (rac=racemic).

[2] = Solubility in water, buffers, simulated fluids and Captisol; type: physicochemical; details: thermodynamic from solid; for solubility: aqueous with cosolvent or surfactant or cyclodextrin, ambient conditions, UV after 2-3day equilibration; for solubility at 24 h: 25° C., HPLC after 24-hour equilibration
Experimental: Solubility of a sodium salt of Formula IIIa (below) was determined in water and at various pH values and simulated intestinal fluids using HPLC and UV analysis with and without modified beta-cyclodextrin (Captisol®). Phase solubility was used to estimate the Captisol®: Formula IIIa binding constant. The influence of Captisol® on oral absorption was modelled as shown below. The effect of Captisol® on solution stability was determined by HPLC. Plasma levels of Formula IIIa were measured by LCMS/MS.

[3] = Single ascending dose study, safety and tolerability; type: in vivo, human; details: single oral doses 2 to 480 mg in NHV, 40 mg in T2DM subjects
Experimental: (§1) Oral doses of IIIa were administered to normal healthy volunteers (NHV) and subjects with type 2 diabetes mellitus (T2DM). A single center, randomized, double-blind, placebo-controlled single ascending dose study was done in both NHV (n=48) and T2DM subjects (n=8). Dose escalation only occurred after review of safety and tolerability data from previous dose levels (n=8/cohort; 2-placebo & 6-IIIa). Dosing of the T2DM cohort was initiated only after the equivalent dose had been administered to NHV and safety data had been reviewed. All subjects were administered IIIa in the morning after an overnight fast with the exception of the NHV in the 40 mg cohort. NHV subjects in the 40 mg cohort initially received IIIa in a fasted state. Following a 3 week washout period, IIIa was readministered after breakfast at 40 mg to determine the effects of food consumption on pharmacokinetics.
(§2) This was a single center, randomized, double-blind, placebo-controlled single ascending dose study in both normal healthy volunteers (NHV) (n=48) and subjects with type 2 diabetes mellitus (T2DM) (n=8). All subjects were administered Formula IIIa as a solution formulated with Captisol® after an overnight fast with the exception of the NHV in the 40 mg cohort. The NHV 40 mg cohort initially received Formula IIIa in a fasted state. Following a washout period, subjects received 40 mg Formula IIIa after breakfast to explore the effects of food consumption on pharmacokinetics.
In type 2 diabetes mellitus (T2DM), inappropriately elevated levels of glucagon exacerbate hyperglycemia and its associated complications. Not wishing to be bound to a particular theory, it has been observed that antagonism of glucagon action reduces blood glucose levels and hemoglobin A1c in patients with T2DM. The novel, selective, orally bioavailable glucagon receptor antagonist, Formula IIIa (below), was investigated regarding its pharmacokinetics (PK), safety, and pharmacodynamics (PD) in a first-in-human, ascending, single-dose, double blind, placebo-controlled study in normal healthy (NH) and T2DM subjects (NCT01919684).

[4] = Single ascending dose study, pharmacokinetics; type: in vivo, human; details: 2 to 480 mg oral, human subjects
Experimental: as §1, §2
Plasma levels of Formula IIIa were measured by validated LC-MS/MS method. Formula IIIa was well absorbed after oral administration with peak plasma concentrations reached approximately 5-8 hours post dose. Consistent with preclinical predictions, clearance was slow and Formula IIIa was not detected in the urine.

T1 sequence (P47871 26-477): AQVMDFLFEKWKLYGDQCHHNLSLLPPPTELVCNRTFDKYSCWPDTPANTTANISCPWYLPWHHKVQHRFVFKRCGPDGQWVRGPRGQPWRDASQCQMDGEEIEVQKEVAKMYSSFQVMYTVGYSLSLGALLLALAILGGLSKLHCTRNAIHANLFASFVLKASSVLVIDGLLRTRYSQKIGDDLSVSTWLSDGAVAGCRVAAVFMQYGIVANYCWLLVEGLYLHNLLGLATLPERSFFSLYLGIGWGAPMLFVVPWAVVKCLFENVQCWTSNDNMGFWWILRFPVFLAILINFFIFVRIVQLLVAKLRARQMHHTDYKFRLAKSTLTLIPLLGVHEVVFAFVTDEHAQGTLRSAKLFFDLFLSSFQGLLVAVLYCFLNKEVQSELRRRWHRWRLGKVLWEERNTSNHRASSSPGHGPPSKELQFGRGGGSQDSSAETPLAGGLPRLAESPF

IC50 [1] [nM] | solubility ([2]; 15% w/v Captisol) [µg/mL] | solubility ([2]; 35% w/v Captisol) [µg/mL] | solubility at 24 h ([2]; simulated gastric fluid, 0.01N HCL) [µg/mL] | solubility at 24 h ([2]; simulated gastric fluid, 0.1N HCL) [µg/mL] | solubility at 24 h ([2]; Fasted state simulated intestinal fluid (FaSSIF)) [µg/mL] | solubility at 24 h ([2]; Fed state simulated intestinal fluid (FeSSIF)) [µg/mL] | solubility at 24 h ([2]; Simulated gastric fluid (SGF)) [µg/mL] | solubility at 24 h ([2]; Water) [µg/mL] | plasma exposure versus dose [4] | SMILES | tolerability [3]
15 | – | – | – | – | – | – | – | – | – | Cc1cc(C(F)(F)F)ccc1-c1ccc(NC(=O)C(Cc2ccc(C(=O)NCCS(=O)(=O)O)cc2)c2ccc(C3=CCC(C)(C)CC3)cc2)cc1 (racemic) | –
– | 11530 ± 40 | 32900 ± 440 | 70 | 60 | 210 | 6540 ± 190 | 40 ± 10 | 210 ± 10 | dose dependent increases | Cc1cc(C)c(C2C=CC(NC(=O)[C@H](Cc3ccc(C(=O)NCCS(=O)(=O)O)cc3)c3ccc(-c4ccc(C(C)(C)C)cc4)cc3)=CC2)c(C)c1 (stereo partly drawn) [Formula IIIa sodium salt] | well tolerated
9 | – | – | – | – | – | – | – | – | – | Cc1cc(Cl)ccc1-c1ccc(NC(=O)C(Cc2ccc(C(=O)NCCS(=O)(=O)O)cc2)c2ccc(C3CCC(C(C)(C)C)CC3)cc2)cc1 (stereo not drawn) | –
